# Test results from ChEMBL document CHEMBL1158575, “Glutarimide alkaloids and a terpenoid benzoquinone from Cordia globifera” (J Nat Prod, 2010).
# Calls of active or inactive are those of the source. No cut-off for these calls is given here.
# Assays:
# [1] = tested on: HepG2; test: Cytotoxicity against human HepG2 cells MTT assay; format: functional, cell-based
# [2] = tested on: MOLT-3; test: Cytotoxicity against human MOLT3 cells XTT assay; format: functional, cell-based
# [3] = tested on: A549; test: Cytotoxicity against human A549 cells MTT assay; format: functional, cell-based
# [4] = tested on: HuCC-A1; test: (§1) Cytotoxicity against human HuCCa1 cells MTT assay; format: functional, cell-based
# [5] = tested on: RAW264.7; test: Inhibition of superoxide anion radical formation in mouse RAW264.7 cells by xanthine/xanthine oxidase assay; format: functional, cell-based
# [6] = tested on: HL-60; test: Suppression of TPA-induced superoxide anion generation in differentiated human HL60 cells at 100 uM; format: functional
# [7] = as §1; format: functional, cell-based; details: HuCC-A1
SMILES,Activity [1],IC50 [2] [µM],Activity [3],Activity [4],IC50 [5] [µM],Activity [6] [%],IC50 [1] [µM],IC50 [3] [µM],IC50 [7] [µM]
CC(=O)N[C@H]1CCC(=O)N(CC(=O)c2ccccc2)C1=O [CORDIARIMIDE A],inactive,145,inactive,inactive,54.1,–,–,–,–
CC(=O)N[C@H]1CCC(=O)N(C[C@H](O)c2ccccc2)C1=O [CORDIARIMIDE B],inactive,44.5,inactive,inactive,21.7,54,–,–,–
C[C@@]12CC3=C(C[C@H]1[C@]1(C)C[C@@H]1C2)C(=O)C=CC3=O [GLOBIFERANE],–,3.7,–,–,–,–,149,149,66
